Experimental data from article PMC8151276, “An Integrated Approach toward NanoBRET Tracers for Analysis of GPCR Ligand Engagement” (Molecules, 2021).
One block for each compound: values may come before it.

Experiments:
Format in all cases: binding
AVPR2 = biological target: T1, AVPR2 (Homo sapiens, UniProt P30518); experiment: NanoBRET screen HiBiT-AVPR2 in HEK293
T1 construct: purchased Promega (in-house HiBiT-GPCR construct library, NanoBRET)
Protocol: (§1) Each tracer candidate was screened across the entire library of HiBiT-GPCR constructs using NanoBRET as the detection modality. As depicted in Figure 4A, the specificity of interactions was evaluated through decrease in BRET due to competitive displacement of a bound tracer by excess parental compound. Each tracer was analyzed for binding to each HiBiT-GPCR fusion in the absence and in the presence of competing parental compound. Briefly, HEK293 cells were transfected with HiBiT-GPCR constructs diluted into promoterless DNA to reduce expression and maximize translocation to the cell surface. Each tracer candidate was then screened at concentrations of 1 μM and 0.1 μM across cells expressing these fusions. Cells were treated for 1.5 h with tracer either alone or in the presence of 20 μM competing parental compound (i.e., control). BRET was measured upon addition of purified LgBiT and subsequent complementation with HiBiT genetically fused to a GPCR. The specificity of interactions was assessed through a decrease in BRET signal due to competitive displacement of the bound tracer. To further gauge the robustness of these interactions, the fold response over the control (i.e., BRETtracer/BRETcontrol) was calculated. We chose a 1.5-fold response, which translates to ≥7-fold signal over noise as the minimal threshold required to score an interaction as positive. […]. Below we highlight the screening results obtained for our exemplary fluorescent tracers based on Clozapine, Amitriptyline and AZD1283.
(§2) HiBiT-GPCR DNA constructs were diluted in 10 mM Tris pH 8 to a final concentration of 0.01 μg/μL, arrayed in 96-well plates and stored at −20 °C. For transfection, HEK293 cells were suspended in Opti-MEM (without phenol red) supplemented with 2% fetal bovine serum (Seradigm) and 100 units/mL penicillin–streptomycin (Gibco) at a final concentration of 220,000 cells/mL and dispensed into white 96-well plates at 90 μL/well. Subsequent transfections and screens were carried using an Agilent Bravo Automated Liquid Handling Platform. First, the 96-well HiBiT DNA arrays were diluted 25-fold in Opti-MEM (without serum or phenol red) to a final concentration of 0.0004 μg/μL and 20 μL of the diluted DNAs were transferred into new 96-well plates. Next, promoterless carrier DNA (1 μg/μL) was diluted 25-fold (0.04 μg/μL) and then dispensed into the diluted arrays at 20 μL/well. Following brief mixing, Viafect transfection reagent (Promega) diluted 16-fold into Opti-MEM was dispensed into the plates at 40 μL/well. After mixing by pipetting, plates were incubated for 10 min on the pipetting station deck. The DNA-transfection reagent complexes were then added to plates containing cells. To facilitate the screen, 10 μL of DNA-transfection reagent complexes were added in duplicates to the top 4 and bottom 4 rows, resulting in two identical 48-well arrays per plate. Plates with transfected cells were incubated for 18–20 h at 37 °C/5% CO2. A screen of each tracer across the entire library using two different concentrations requires duplicate plates of transfected cells. Depending on the number of tracers being screened, transfections can be scaled up using the same ratios. The next day, for each tracer, four 20× screening solutions in tracer dilution buffer (Promega) were prepared: two duplicates at final concentration of 20 μM and two duplicates at a final concentration of 2 μM. A competing unmodified compound was added to one of each duplicate at a final concentration of 400 μM. The four resulting solutions were diluted 4-fold in Opti-MEM without serum or phenol red to generate 5× solutions (5 µM and 0.5 µM tracer +/− 100 μM competing compound). To screen the library, a BioTek MultiFlo FX liquid dispenser was used to dispense 22.5 µL of tracer solution to the top 4 rows and 22.5 µL tracer + competing compound solution to the 4 bottom rows. Plates were briefly mixed on an orbital shaker and incubated for 1.5 h at room temperature. […]

CCR9 = biological target: T2, CCR9 (Homo sapiens, UniProt P51686); experiment: NanoBRET screen HiBiT-CCR9 in HEK293
T2 construct: purchased Promega (in-house HiBiT-GPCR construct library, NanoBRET)
T2 sequence (P51686 1-369): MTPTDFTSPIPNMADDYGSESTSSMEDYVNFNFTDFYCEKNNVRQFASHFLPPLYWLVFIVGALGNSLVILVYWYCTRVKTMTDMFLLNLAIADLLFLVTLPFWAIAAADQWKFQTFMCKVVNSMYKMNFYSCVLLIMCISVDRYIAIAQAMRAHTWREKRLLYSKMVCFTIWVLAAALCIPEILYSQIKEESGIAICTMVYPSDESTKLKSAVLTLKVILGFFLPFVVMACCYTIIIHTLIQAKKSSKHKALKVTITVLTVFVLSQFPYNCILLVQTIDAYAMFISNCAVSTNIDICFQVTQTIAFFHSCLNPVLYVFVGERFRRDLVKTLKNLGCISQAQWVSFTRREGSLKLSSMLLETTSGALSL
Protocol: as §1, §2

GRPR = biological target: T3, GRPR (Homo sapiens, UniProt P30550); experiment: NanoBRET screen HiBiT-GRPR in HEK293
T3 construct: purchased Promega (in-house HiBiT-GPCR construct library, NanoBRET)
T3 sequence (P30550 whole entry): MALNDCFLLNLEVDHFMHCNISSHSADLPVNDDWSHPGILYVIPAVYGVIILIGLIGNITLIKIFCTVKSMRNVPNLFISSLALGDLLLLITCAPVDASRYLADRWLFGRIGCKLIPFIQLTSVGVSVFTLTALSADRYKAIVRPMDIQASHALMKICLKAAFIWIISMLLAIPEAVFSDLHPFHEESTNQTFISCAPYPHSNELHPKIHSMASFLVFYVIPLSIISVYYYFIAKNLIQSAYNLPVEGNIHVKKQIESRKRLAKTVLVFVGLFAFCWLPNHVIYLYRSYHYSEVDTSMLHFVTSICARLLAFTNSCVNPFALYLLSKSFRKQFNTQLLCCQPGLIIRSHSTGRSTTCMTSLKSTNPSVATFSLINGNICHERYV
Protocol: as §1, §2

P2RY10 = biological target: T4, P2RY10 (Homo sapiens, UniProt O00398); experiment: NanoBRET screen HiBiT-P2RY10 in HEK293
T4 construct: purchased Promega (in-house HiBiT-GPCR construct library, NanoBRET)
T4 sequence (O00398 whole entry, one chain of several): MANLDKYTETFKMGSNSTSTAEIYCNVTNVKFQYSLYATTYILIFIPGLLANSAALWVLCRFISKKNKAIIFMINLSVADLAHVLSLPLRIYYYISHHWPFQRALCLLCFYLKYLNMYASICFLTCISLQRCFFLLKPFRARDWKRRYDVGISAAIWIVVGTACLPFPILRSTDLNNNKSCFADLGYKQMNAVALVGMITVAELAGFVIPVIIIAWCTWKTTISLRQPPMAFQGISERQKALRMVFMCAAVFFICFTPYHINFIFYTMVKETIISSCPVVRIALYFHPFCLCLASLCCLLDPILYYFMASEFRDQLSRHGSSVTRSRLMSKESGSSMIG
Protocol: as §1, §2

HCRTR1 = biological target: T5, HCRTR1 (Homo sapiens, UniProt O43613); experiment: NanoBRET screen HiBiT-HCRTR1 in HEK293
T5 construct: purchased Promega (in-house HiBiT-GPCR construct library, NanoBRET)
T5 sequence (O43613 1-425): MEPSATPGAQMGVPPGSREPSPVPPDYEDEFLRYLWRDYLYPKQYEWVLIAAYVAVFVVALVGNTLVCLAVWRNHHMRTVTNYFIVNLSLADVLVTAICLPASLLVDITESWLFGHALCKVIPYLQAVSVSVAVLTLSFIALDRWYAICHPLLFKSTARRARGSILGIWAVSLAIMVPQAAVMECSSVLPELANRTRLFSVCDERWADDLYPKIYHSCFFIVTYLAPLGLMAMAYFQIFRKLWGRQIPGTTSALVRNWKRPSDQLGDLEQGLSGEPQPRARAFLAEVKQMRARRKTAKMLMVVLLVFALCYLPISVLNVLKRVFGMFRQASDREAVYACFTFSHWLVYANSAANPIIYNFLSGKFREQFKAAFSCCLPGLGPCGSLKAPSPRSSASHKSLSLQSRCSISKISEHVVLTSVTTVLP
Protocol: as §1, §2

T1 sequence (P30518 whole entry): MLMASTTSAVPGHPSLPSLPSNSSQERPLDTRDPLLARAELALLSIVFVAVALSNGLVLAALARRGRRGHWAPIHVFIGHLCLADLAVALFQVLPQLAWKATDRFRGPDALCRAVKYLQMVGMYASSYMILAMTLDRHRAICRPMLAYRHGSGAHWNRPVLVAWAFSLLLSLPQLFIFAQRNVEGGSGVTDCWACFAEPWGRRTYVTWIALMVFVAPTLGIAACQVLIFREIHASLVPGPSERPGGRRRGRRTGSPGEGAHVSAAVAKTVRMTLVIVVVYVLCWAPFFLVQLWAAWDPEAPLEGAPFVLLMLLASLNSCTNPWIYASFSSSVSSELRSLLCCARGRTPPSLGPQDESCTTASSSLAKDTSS

Structure (SMILES): O=C(CCc1ccc2n1[B-](F)(F)[N+]1=C(c3ccc[nH]3)C=CC1=C2)NCCOCCOCCNC(=O)OCCOCCN1CCN(C2=Nc3ccccc3Sc3ccccc32)CC1 [Quetiapine-a-2-NB590]
NanoBRET Fold Response (AVPR2; AVPR2, tracer 0.1μM): 1.03
NanoBRET Fold Response (AVPR2; AVPR2, tracer 1μM): 0.93
NanoBRET Fold Response (CCR9; CCR9, tracer 0.1μM): 1.05
NanoBRET Fold Response (CCR9; CCR9, tracer 1μM): 0.96
NanoBRET Fold Response (GRPR; GRPR, tracer 0.1μM): 0.66
NanoBRET Fold Response (GRPR; GRPR, tracer 1μM): 0.84
NanoBRET Fold Response (P2RY10; P2RY10, tracer 0.1μM): 0.94
NanoBRET Fold Response (P2RY10; P2RY10, tracer 1μM): 0.95
NanoBRET Fold Response (HCRTR1; HCRTR1, tracer 0.1μM): 0.98
NanoBRET Fold Response (HCRTR1; HCRTR1, tracer 1μM): 0.77

Structure (SMILES): Cc1cc2c(s1)Nc1ccccc1N=C2N1CCN(CCCNC(=O)CCOCCOCCOCCOCCNC(=O)CCc2ccc3n2[B-](F)(F)[N+]2=C(c4ccc[nH]4)C=CC2=C3)CC1 [Olanzapine-a-2-NB590]
NanoBRET Fold Response (AVPR2; AVPR2, tracer 0.1μM): 0.98
NanoBRET Fold Response (AVPR2; AVPR2, tracer 1μM): 0.92
NanoBRET Fold Response (CCR9; CCR9, tracer 0.1μM): 1.03
NanoBRET Fold Response (CCR9; CCR9, tracer 1μM): 1.17
NanoBRET Fold Response (GRPR; GRPR, tracer 0.1μM): 0.95
NanoBRET Fold Response (GRPR; GRPR, tracer 1μM): 0.93
NanoBRET Fold Response (P2RY10; P2RY10, tracer 0.1μM): 0.99
NanoBRET Fold Response (P2RY10; P2RY10, tracer 1μM): 1.15
NanoBRET Fold Response (HCRTR1; HCRTR1, tracer 0.1μM): 0.98
NanoBRET Fold Response (HCRTR1; HCRTR1, tracer 1μM): 0.99

Structure (SMILES): CN1CCN(C2=Nc3cc(Cl)ccc3Nc3ccc(CNC(=O)CCOCCOCCOCCOCCNC(=O)CCc4ccc5n4[B-](F)(F)[N+]4=C(c6ccc[nH]6)C=CC4=C5)cc32)CC1 [Clozapine-b-2-NB590]
NanoBRET Fold Response (AVPR2; AVPR2, 0.1μM tracer): 1.05
NanoBRET Fold Response (AVPR2; AVPR2, 1μM tracer): 0.95
NanoBRET Fold Response (CCR9; CCR9, 0.1μM tracer): 1.01
NanoBRET Fold Response (CCR9; CCR9, 1μM tracer): 0.92
NanoBRET Fold Response (GRPR; GRPR, 0.1μM tracer): 1.01
NanoBRET Fold Response (GRPR; GRPR, 1μM tracer): 1.00
NanoBRET Fold Response (P2RY10; P2RY10, 0.1μM tracer): 0.96
NanoBRET Fold Response (P2RY10; P2RY10, 1μM tracer): 1.15
NanoBRET Fold Response (HCRTR1; HCRTR1, 0.1μM tracer): 1.04
NanoBRET Fold Response (HCRTR1; HCRTR1, 1μM tracer): 1.01

NanoBRET Fold Response (AVPR2; 0.1μM tracer): 0.91
NanoBRET Fold Response (AVPR2; 1μM tracer): 1.01
NanoBRET Fold Response (CCR9; 0.1μM tracer): 1.05
NanoBRET Fold Response (CCR9; 1μM tracer): 1.04
NanoBRET Fold Response (GRPR; 0.1μM tracer): 1.00
NanoBRET Fold Response (GRPR; 1μM tracer): 1.08
NanoBRET Fold Response (P2RY10; 0.1μM tracer): 0.88
NanoBRET Fold Response (P2RY10; 1μM tracer): 0.88
NanoBRET Fold Response (HCRTR1; 0.1μM tracer): 0.93
NanoBRET Fold Response (HCRTR1; 1μM tracer): 0.84
Structure (SMILES): COc1ccc2c(n1)c(CCNC(C)=O)cn2CCNC(=O)CCc1ccc2n1[B-](F)(F)[N+]1=C(c3ccc[nH]3)C=CC1=C2 [Azamelatonin-1-NB590]

Structure (SMILES): O=C(CCc1ccc2n1[B-](F)(F)[N+]1=C(c3ccc[nH]3)C=CC1=C2)NCc1ccc(C(=O)NCCOCCOCCNCC(O)COc2cccc3ccccc23)cc1 (centres unmarked) [Propranolol-3-NB590]
NanoBRET Fold Response (AVPR2; AVPR2, 0.1μM): 1.00
NanoBRET Fold Response (AVPR2; AVPR2, 1μM): 1.00
NanoBRET Fold Response (CCR9; CCR9, 0.1μM): 1.08
NanoBRET Fold Response (CCR9; CCR9, 1μM): 1.00
NanoBRET Fold Response (GRPR; GRPR, 0.1μM): 0.99
NanoBRET Fold Response (GRPR; GRPR, 1μM): 1.03
NanoBRET Fold Response (P2RY10; P2RY10, 0.1μM): 1.34
NanoBRET Fold Response (P2RY10; P2RY10, 1μM): 0.95
NanoBRET Fold Response (HCRTR1; HCRTR1, 0.1μM): 1.01
NanoBRET Fold Response (HCRTR1; HCRTR1, 1μM): 0.94
